Measured values taken from paper PMC7011998 (Journal of Enzyme Inhibition and Medicinal Chemistry, 2017).

Columns and labels:
[1] = test system: T. cruzi Dm28c strain epimastigotes; assay: Flow cytometry annexin V-FITC / propidium iodide, Dm28c; type: cell-based, Trypanosoma cruzi; settings: 32 μM
Experimental: The analysis of the externalization of phosphatidylserine was performed using annexin V fluoresceine isothiocyanate (AV FITC) and propidium iodide, PI (Santa Cruz Biotechonology, Santa Cruz, CA). The cells were analysed by flow cytometry (FACS Calibur-Beckton-Dickinson), 50,000 events were analysed by the Paint-a-gate program and values were expressed as percentage of cells positive for a given marker relative to the total number of cells: FITC-labelled cells […], PI-labelled cells […], and cells with ruptured cell membrane (necrotic cells will be double-labelled).

[2] = test system: T. cruzi clone Dm28c epimastigotes; assay: Growth inhibition of T. cruzi epimastigotes, resazurin microdilution, Dm28c; type: cell-based, Trypanosoma cruzi
Experimental: (§1) Epimastigote forms of the T. cruzi clone Dm28c ([…])[31] and Y([…])[32]^,[33] strains obtained from the Laboratory of Cellular Ultrastructure (both laboratories of the Oswaldo Cruz Foundation, Rio de Janeiro, Brazil) were used. The parasites were maintained in PBHIL medium supplemented with 10% bovine serum (FBS) at 28 °C[34].
(§2) The Minimum inhibitory concentration (MIC) for epimastigotes was performed with resazurin as an indicator of cellular metabolic function and it was determined as the lowest concentration capable of inhibiting in vitro growth of the parasites.

[3] = test system: T. cruzi Y strain epimastigotes; assay: Growth inhibition of T. cruzi epimastigotes, resazurin microdilution, Y strain; type: cell-based; settings: Trypanosoma cruzi; TcY epimastigotes, drug nanoemulsions; read-out: IC90 (concentration which reduced the proliferation of epimastigotes by 90%)
Experimental: as §1, §2

Trypanosoma cruzi = test system: Trypanosoma cruzi; set-up: method as in PMID 23815159; settings: unformulated sulfonamides; cited from earlier work
[4] = Dissolution of sulfonamides in clove oil; settings: concentration 5 mg/ml in clove oil
Experimental: Oil phase was prepared by sulfonamides dissolution in the clove oil. A 5 mg of drug was weighted in an eppendorf and 1 ml of clove oil was added. The tube was agitated for 1 min for obtaining of the drug solution (5 mg/ml). Aqueous phase were prepared by adding 1 g of Pluronic F127® in 8 mg of water. Then 1 ml of oil phase (drug dissolved in clove oil) was added to 9 ml of aqueous phase (Pluronic F127 in water) under constant ultrasound homogenization (amplitude 80%, continuous cycle n. 1) during 5 min in an ice bath at 5 °C to prevent heating of the dispersion.
The NEs were produced with 10% of oil phase.

SMILES	in vivo anti-trypanosomal effects (Trypanosoma cruzi)	dissolution in clove oil [4]	further results
O=C(Cn1ccnc1[N+](=O)[O-])NCc1ccccc1 [BZN, 2-nitro-imidazole-(N-benzil-2-nitro-1imidazoleacetamide)]			cell death by necrosis (propidium iodide) [1]: 51.16%; IC50 ([2]; Trypanosoma cruzi, read-out: IC50 (concentration which reduced the proliferation of epimastigotes by 50%), Tc DM28c epimastigotes, drug nanoemulsions): 20.6 µM; IC90 ([2]; Trypanosoma cruzi, Tc DM28c epimastigotes, drug nanoemulsions, read-out: IC90 (concentration which reduced the proliferation of epimastigotes by 90%)): > 128 µM; SI (selectivity index) ([2]; both strains (DM28c and Y), CC50 RAW / IC50): 5–5.8; IC90 [3]: > 128 µM
NS(=O)(=O)c1ccc(NC(=O)Cc2ccc(Cl)cc2)c(F)c1 [3F]	did not show in vivo anti-trypanosomal effects	dissolved efficiently	
NS(=O)(=O)c1ccc(CCNC(=O)Cc2ccccc2Br)cc1 [3W]	did not show in vivo anti-trypanosomal effects	dissolved efficiently	
NS(=O)(=O)c1nnc(NC(=O)Cc2ccccc2Br)s1 [5C]	did not show in vivo anti-trypanosomal effects	dissolved efficiently	
COc1ccc(CC(=O)Nc2nnc(S(N)(=O)=O)s2)cc1 [5D]	did not show in vivo anti-trypanosomal effects	dissolved efficiently	
NS(=O)(=O)c1nnc(NC(=O)Cc2ccc(Cl)cc2)s1 [5B]	did not show in vivo anti-trypanosomal effects	dissolved efficiently	
NS(=O)(=O)c1ccc(NC(=O)Cc2ccccc2Br)c(F)c1 [3G]	did not show in vivo anti-trypanosomal effects	dissolved efficiently	
